From patent US6387268B1 (priority 1998, dated 2002)
Read-outs that look alike come from different tables or passages of the source.

Target: rat α3/β4 nAChR (Rattus norvegicus, UniProt P04757+P12392)
Conditions: 60 pM [3H]-EB; for retention volume of [3H]-EB: 9.5 ml without competitor
Protocol: The cultured cells in which rat α3/β4 subtype of neural nicotinic acetylcholine receptor (nAChR) were expressed by transfected cell line KXα3β4R2 were harvested in 30 ml of Tris-HCl buffer (50 mM, pH 7.4) and homogenized for 20 minutes with a Brinkman Polytron homogenizer. The homogenates were centrifuged at 35,000×g for 10 minutes and the supernatant was discarded. The resulting pellets were suspended in 6 ml of 2% cholate in Tris-HCl buffer (50 mM, pH 7.4) and stirred for two hours in an ice bath. After centrifugation at 35,000×g, the supernatant was collected for the immobilization. IAM packing materials (200 mg) were washed three times by centrifugation with Tris-HCl buffer (50 mM, pH 7.4). The IAM materials were suspended in 4 ml of receptor-detergent solution, stirred for one hour at room temperature and dialyzed against 2×1 L buffer for 24 hours at 4° C. When detergents were depleted from the mixture, the receptors were hydrophobically entrapped in the phospholipid monolayer on the surface of IAM materials. The receptor-IAM materials were washed with buffer by centrifugation at 4000×g.
The NR(α4β2)-IAM packing materials were packed in an HR glass column (Pharmacia Biotech) and connected with an HPLC pump. […] The elution profile was monitored by an on-line radioactivity HPLC detector.
The resulting column was used in the LC study of drug-NR binding using frontal chromatographic techniques with [^3H]-epibatidine (EB) as the marker ligand. A series of [^3H]-EB concentrations ranging from 60 pM to 600 pM were pumped through the (α3/β4)NR-IAM column2 to obtain elution profiles showing front and plateau regions. The concentration of the [^3H]-EB in the column eluent was monitored by an LC on-line radioactivity detector.
The binding of the [^3H]-EB on the (α3/β4)NR-IAM column was be altered by the addition of competitive NR-ligands to the mobile phase.

Sequence of rat α3/β4 nAChR (P04757 26-499): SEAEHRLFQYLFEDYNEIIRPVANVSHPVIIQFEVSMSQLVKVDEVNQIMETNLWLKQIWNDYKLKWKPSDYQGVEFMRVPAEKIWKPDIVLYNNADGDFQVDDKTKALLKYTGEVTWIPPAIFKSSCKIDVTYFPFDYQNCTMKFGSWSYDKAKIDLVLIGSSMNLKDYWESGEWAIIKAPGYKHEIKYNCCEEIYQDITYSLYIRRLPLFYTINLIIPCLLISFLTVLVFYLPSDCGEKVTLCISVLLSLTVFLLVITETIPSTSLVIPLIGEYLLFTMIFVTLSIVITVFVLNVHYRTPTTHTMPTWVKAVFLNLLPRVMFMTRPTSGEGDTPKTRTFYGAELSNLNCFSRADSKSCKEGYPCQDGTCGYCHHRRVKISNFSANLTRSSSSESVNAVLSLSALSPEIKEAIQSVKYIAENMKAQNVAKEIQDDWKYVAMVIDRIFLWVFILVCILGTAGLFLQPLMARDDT
Sequence of rat α3/β4 nAChR (P12392 22-495 limits assumed): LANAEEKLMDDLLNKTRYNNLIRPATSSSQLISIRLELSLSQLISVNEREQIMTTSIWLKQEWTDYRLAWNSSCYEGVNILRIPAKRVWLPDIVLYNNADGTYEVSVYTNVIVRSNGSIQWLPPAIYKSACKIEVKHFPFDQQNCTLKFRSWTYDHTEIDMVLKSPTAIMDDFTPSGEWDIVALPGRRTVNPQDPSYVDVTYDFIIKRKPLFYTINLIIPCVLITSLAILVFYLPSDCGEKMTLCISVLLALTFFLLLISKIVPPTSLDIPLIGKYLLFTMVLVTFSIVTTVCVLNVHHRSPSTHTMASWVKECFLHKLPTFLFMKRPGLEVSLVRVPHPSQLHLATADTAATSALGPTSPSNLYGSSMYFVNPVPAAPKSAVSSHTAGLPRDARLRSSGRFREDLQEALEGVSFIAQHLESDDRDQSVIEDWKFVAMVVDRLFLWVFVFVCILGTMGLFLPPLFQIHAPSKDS

Compound: C[N+](C)(C)CCOC(N)=O [carbachol]
- mobile phase concentration required to decrease the retention volume of [3H]-EB from 9.5 ml to 6 ml: 1.3 µM

Compound: c1cncc(OC[C@@H]2CCN2)c1 [A85380]
- mobile phase concentration required to decrease the retention volume of [3H]-EB from 9.5 ml to 6 ml: 17000 µM
- retention volume of [3H]-EB (10 nM A85380 in mobile phase): 6.6 mL
- retention volume of [3H]-EB (100 nM A85380 in mobile phase): 1.9 mL

Compound: CN1CCCC1c1cccnc1 (stereo not drawn) [nicotine]
- mobile phase concentration required to decrease the retention volume of [3H]-EB from 9.5 ml to 6 ml: 0.045 µM

Compound: Clc1ccc(C2CC3CCC2N3)cn1 (racemic) [(±)-EB, epibatidine]
- mobile phase concentration required to decrease the retention volume of [3H]-EB from 9.5 ml to 6 ml: 0.00012 µM
